Literature values, collected in patent US7388012B2, “(Hydrazido)(amino)thiophene compounds” (OSI Pharmaceuticals, Inc., priority 2004, dated 2008).
Where a name gives a salt, the structure may show the parent alone.

Tests used:
[1] = tested on: MO7e human leukemia cells
[2] = tested on: MO7e human leukemia cells; remark: listed apart in the source

## Cc1ccc(NC(=O)c2ccc(CN3CCN(C)CC3)cc2)cc1Nc1nccc(-c2cccnc2)n1 [Gleevec, imatinib mesylate]
[1]; Kit ligand-stimulated
  Kit ligand-stimulated growth of MO7e human leukemia cells: inhibited
[1]; Kit ligand-stimulated conditions
  apoptosis of MO7e human leukemia cells: induces apoptosis
[2]
  GM-CSF stimulated growth of MO7e human leukemia cells: not affected
